Where a SMILES comes first, the peptide text is derived from it.
System: drug-resistant Mycobacterium tuberculosis
Settings: peptide 10 micrograms per ml, seven days

Compound: CC(C)C[C@H](NC(=O)[C@@H]1CCCN1)C(=O)NCC(N)=O [MSHRIF, Pro-Leu-Gly-NH2] (H-Pro-Leu-Gly-NH2)
- % inhibition: 0.0%

From patent publication US20100190724A1, “USE OF MELANOCYTE-STIMULATING HORMONE RELEASE-INHIBITING FACTOR AS A THERAPEUTIC AGENT IN THE TREATMENT OF PSEUDOMONAS AERUGINOSA INFECTION” (priority 2007, published 2010)
